# Results taken from US11053204B2, “Pyrimidinyloxy benzene derivatives as herbicides” (FMC Corporation, priority 2015, dated 2021).
# Key:
# Type in all cases: in vivo
# [1] = system: blackgrass (Alopecurus myosuroides); experiment: Test C preemergence, plant response rating; details: Preemergence
# How it was run: (§1)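 After sowing in loam–sand blend or silt loam, pots were sprayed preemergence; separately grown 1- to 4-leaf plants were sprayed postemergence. Following 13 to 15 d under greenhouse conditions, injury was rated visually on a 0 to 100 scale.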
# corn (Zea mays) [2] = experiment: Test C preemergence, plant response rating; details: Preemergence
# How it was run: as §1
# [3] = system: crabgrass, large (large crabgrass, Digitaria sanguinalis); experiment: Test C preemergence, plant response rating; details: Preemergence
# How it was run: as §1
# [4] = system: foxtail, giant (giant foxtail, Setaria faberii); experiment: Test C preemergence, plant response rating; details: Preemergence
# How it was run: as §1
# [5] = system: lambsquarters (Chenopodium album); experiment: Test C preemergence, plant response rating; details: Preemergence
# How it was run: as §1
# [6] = system: morningglory (Ipomoea coccinea); experiment: Test C preemergence, plant response rating; details: Preemergence
# How it was run: as §1
# [7] = system: nutsedge, yellow (yellow nutsedge, Cyperus esculentus); experiment: Test C preemergence, plant response rating; details: Preemergence
# How it was run: as §1
# [8] = system: oilseed rape (Brassica napus); experiment: Test C preemergence, plant response rating; details: Preemergence
# How it was run: as §1
# [9] = system: ryegrass, Italian (Italian ryegrass, Lolium multiflorum); experiment: Test C preemergence, plant response rating; details: Preemergence
# How it was run: as §1
# soybean (Glycine max) [10] = experiment: Test C preemergence, plant response rating; details: Preemergence
# How it was run: as §1
# [11] = system: velvetleaf (Abutilon theophrasti); experiment: Test C preemergence, plant response rating; details: Preemergence
# How it was run: as §1
# [12] = system: waterhemp (common waterhemp, Amaranthus rudis); experiment: Test C preemergence, plant response rating; details: Preemergence
# How it was run: as §1
# [13] = system: wheat (winter wheat, Triticum aestivum); experiment: Test C preemergence, plant response rating; details: Preemergence
# How it was run: as §1
# corn (Zea mays) [14] = experiment: Test C postemergence, plant response rating; details: for Corn plant response rating: scale 0 to 100 (0 no effect, 100 complete control)
# How it was run: as §1
# [15] = system: crabgrass, large (large crabgrass, Digitaria sanguinalis); experiment: Test C postemergence, plant response rating; details: for Crabgrass, Large plant response rating: scale 0 to 100 (0 no effect, 100 complete control)
# How it was run: as §1
# [16] = system: foxtail, giant (giant foxtail, Setaria faberii); experiment: Test C postemergence, plant response rating; details: for Foxtail, Giant plant response rating: scale 0 to 100 (0 no effect, 100 complete control)
# How it was run: as §1
# [17] = system: galium (catchweed bedstraw, Galium aparine); experiment: Test C postemergence, plant response rating; details: for Galium plant response rating: scale 0 to 100 (0 no effect, 100 complete control)
# How it was run: as §1
# kochia (Kochia scoparia) = experiment: Test C postemergence, plant response rating; details: for Kochia plant response rating: scale 0 to 100 (0 no effect, 100 complete control)
# How it was run: as §1
# [18] = system: oilseed rape (Brassica napus); experiment: Test C postemergence, plant response rating; details: for Oilseed Rape plant response rating: scale 0 to 100 (0 no effect, 100 complete control)
# How it was run: as §1
# soybean (Glycine max) [19] = experiment: Test C postemergence, plant response rating; details: for Soybean plant response rating: scale 0 to 100 (0 no effect, 100 complete control)
# How it was run: as §1
# [20] = system: waterhemp (common waterhemp, Amaranthus rudis); experiment: Test C postemergence, plant response rating
# How it was run: as §1
smiles,measurement,setting,value
FC(F)(F)CCCCc1c(Br)cccc1Oc1ncc(Cl)cn1 [Compound 138],"Plant response rating, Blackgrass","[1]; 125 g ai/ha, scale of 0 to 100",90
same,"Plant response rating, Blackgrass","[1]; 16 g ai/ha, scale 0 to 100",10
same,"Plant response rating, Blackgrass","[1]; 31 g ai/ha, scale 0 to 100",50
same,"Plant response rating, Blackgrass","[1]; 62 g ai/ha, scale 0 to 100",80
same,"Plant response rating, Corn","corn (Zea mays) [2]; 125 g ai/ha, scale of 0 to 100",5
same,"Plant response rating, Corn","corn (Zea mays) [2]; 16 g ai/ha, scale 0 to 100",0
same,"Plant response rating, Corn","corn (Zea mays) [2]; 31 g ai/ha, scale 0 to 100",0
same,"Plant response rating, Corn","corn (Zea mays) [2]; 62 g ai/ha, scale 0 to 100",5
same,"Plant response rating, Crabgrass, Large","[3]; 125 g ai/ha, scale of 0 to 100",98
same,"Plant response rating, Crabgrass, Large","[3]; 16 g ai/ha, scale 0 to 100",75
same,"Plant response rating, Crabgrass, Large","[3]; 31 g ai/ha, scale 0 to 100",95
same,"Plant response rating, Crabgrass, Large","[3]; 62 g ai/ha, scale 0 to 100",98
same,"Plant response rating, Foxtail, Giant","[4]; 125 g ai/ha, scale of 0 to 100",100
same,"Plant response rating, Foxtail, Giant","[4]; 31 g ai/ha, scale 0 to 100",80
same,"Plant response rating, Foxtail, Giant","[4]; 62 g ai/ha, scale 0 to 100",85
same,"Plant response rating, Lambsquarters","[5]; 125 g ai/ha, scale of 0 to 100",70
same,"Plant response rating, Lambsquarters","[5]; 31 g ai/ha, scale 0 to 100",35
same,"Plant response rating, Lambsquarters","[5]; 62 g ai/ha, scale 0 to 100",25
same,"Plant response rating, Morningglory","[6]; 125 g ai/ha, scale of 0 to 100",10
same,"Plant response rating, Morningglory","[6]; 31 g ai/ha, scale 0 to 100",0
same,"Plant response rating, Morningglory","[6]; 62 g ai/ha, scale 0 to 100",0
same,"Plant response rating, Nutsedge, Yellow","[7]; 125 g ai/ha, scale of 0 to 100",0
same,"Plant response rating, Nutsedge, Yellow","[7]; 31 g ai/ha, scale 0 to 100",0
same,"Plant response rating, Nutsedge, Yellow","[7]; 62 g ai/ha, scale 0 to 100",0
same,"Plant response rating, Oilseed Rape","[8]; 125 g ai/ha, scale of 0 to 100",20
same,"Plant response rating, Oilseed Rape","[8]; 31 g ai/ha, scale 0 to 100",0
same,"Plant response rating, Oilseed Rape","[8]; 62 g ai/ha, scale 0 to 100",5
same,"Plant response rating, Ryegrass, Italian","[9]; 125 g ai/ha, scale of 0 to 100",80
same,"Plant response rating, Ryegrass, Italian","[9]; 31 g ai/ha, scale 0 to 100",10
same,"Plant response rating, Ryegrass, Italian","[9]; 62 g ai/ha, scale 0 to 100",20
same,"Plant response rating, Soybean","soybean (Glycine max) [10]; 125 g ai/ha, scale of 0 to 100",5
same,"Plant response rating, Soybean","soybean (Glycine max) [10]; 31 g ai/ha, scale 0 to 100",0
same,"Plant response rating, Soybean","soybean (Glycine max) [10]; 62 g ai/ha, scale 0 to 100",0
same,"Plant response rating, Velvetleaf","[11]; 125 g ai/ha, scale of 0 to 100",50
same,"Plant response rating, Velvetleaf","[11]; 31 g ai/ha, scale 0 to 100",25
same,"Plant response rating, Velvetleaf","[11]; 62 g ai/ha, scale 0 to 100",20
same,"Plant response rating, Waterhemp","[12]; 125 g ai/ha, scale of 0 to 100",98
same,"Plant response rating, Waterhemp","[12]; 31 g ai/ha, scale 0 to 100",85
same,"Plant response rating, Waterhemp","[12]; 62 g ai/ha, scale 0 to 100",100
same,"Plant response rating, Wheat","[13]; 125 g ai/ha, scale of 0 to 100",10
same,"Plant response rating, Wheat","[13]; 31 g ai/ha, scale 0 to 100",5
same,"Plant response rating, Wheat","[13]; 62 g ai/ha, scale 0 to 100",5
same,"Plant response rating, Corn","corn (Zea mays) [14]; 16 g ai/ha, scale of 0 to 100",15
same,"Plant response rating, Corn","corn (Zea mays) [14]; 31 g ai/ha, scale 0 to 100",20
same,Corn plant response rating,corn (Zea mays) [14]; 62 g ai/ha,25
same,Corn plant response rating,corn (Zea mays) [14]; 125 g ai/ha,30
same,"Plant response rating, Crabgrass, Large","[15]; 16 g ai/ha, scale of 0 to 100",35
same,"Plant response rating, Crabgrass, Large","[15]; 31 g ai/ha, scale 0 to 100",65
same,"Crabgrass, Large plant response rating",[15]; 62 g ai/ha,85
same,"Crabgrass, Large plant response rating",[15]; 125 g ai/ha,95
same,"Plant response rating, Foxtail, Giant","[16]; 16 g ai/ha, scale of 0 to 100",10
same,"Plant response rating, Foxtail, Giant","[16]; 31 g ai/ha, scale 0 to 100",20
same,"Foxtail, Giant plant response rating",[16]; 62 g ai/ha,30
same,"Foxtail, Giant plant response rating",[16]; 125 g ai/ha,65
same,"Plant response rating, Galium","[17]; 16 g ai/ha, scale of 0 to 100",65
same,"Plant response rating, Galium","[17]; 31 g ai/ha, scale 0 to 100",80
same,Galium plant response rating,[17]; 62 g ai/ha,80
same,Galium plant response rating,[17]; 125 g ai/ha,85
same,"Plant response rating, Kochia","kochia (Kochia scoparia); 16 g ai/ha, scale of 0 to 100",75
same,"Plant response rating, Kochia","kochia (Kochia scoparia); 31 g ai/ha, scale 0 to 100",85
same,Kochia plant response rating,kochia (Kochia scoparia); 62 g ai/ha,95
same,Kochia plant response rating,kochia (Kochia scoparia); 125 g ai/ha,98
same,"Plant response rating, Oilseed Rape","[18]; 16 g ai/ha, scale of 0 to 100",70
same,"Plant response rating, Oilseed Rape","[18]; 31 g ai/ha, scale 0 to 100",85
same,Oilseed Rape plant response rating,[18]; 62 g ai/ha,95
same,Oilseed Rape plant response rating,[18]; 125 g ai/ha,100
same,"Plant response rating, Soybean","soybean (Glycine max) [19]; 16 g ai/ha, scale of 0 to 100",35
same,"Plant response rating, Soybean","soybean (Glycine max) [19]; 31 g ai/ha, scale 0 to 100",55
same,Soybean plant response rating,soybean (Glycine max) [19]; 62 g ai/ha,60
same,Soybean plant response rating,soybean (Glycine max) [19]; 125 g ai/ha,55
same,"Plant response rating, Waterhemp","[20]; 16 g ai/ha, scale of 0 to 100",98
same,"Plant response rating, Waterhemp","[20]; 31 g ai/ha, scale 0 to 100",98
same,Waterhemp plant response rating,"[20]; 125 g ai/ha, scale 0 to 100 (0 no effect, 100 complete control)",100
